From paper PMC8915595, “Revisiting the application of Immobilized Artificial Membrane (IAM) chromatography to estimate in vivo distribution properties of drug discovery compounds based on the model of marketed drugs” (ADMET & DMPK, 2020)
Read-outs that look alike come from different tables or passages of the source.

Key:
[1] = cited from earlier work; for CHI (IAM) from ref [13]: reference CHI (IAM), old columns
[2] = target: T1, human serum albumin (HSA) (Homo sapiens, UniProt P02768); assay: Protein binding on chemically bonded HSA column (Chiralpak-HSA); conditions: remeasured in this study, pH 7.4
Description: Mobile phase A was 50 mM ammonium acetate adjusted to pH 7.4 and mobile phase B was 2-propanol. The flow rate was 1.5 mL/min and the run time was 6 min. The 2-propanol gradient was applied from 0 to 35% from 0 to 3.00 min and kept at 35% until 4.00 min.

[3] = target: T1, human serum albumin (HSA); conditions: cited from earlier work
[4] = IAM chromatography on new IAM.PC.DD2 columns (gradient HPLC, CHI (IAM)); type: physicochemical; set-up: key to CHI (IAM) “new” / P20511-014-3 CHI (IAM): CHI (IAM) from retention times calibrated to predefined CHI standards; conditions: for P20511-014-3 CHI (IAM): new IAM.PC.DD2 column batch P20511-014-3, pH 7.4; for R20511-014-3 CHI (IAM): new IAM.PC.DD2 column batch R20511-014-3, pH 7.4; for CHI (IAM) deviation between reference and new IAM.PC.DD2 columns / CHI (IAM) “new”: system suitability test compounds; for CHI (IAM) “new”: new IAM.PC.DD2 columns, pH 7.4; for outlier in correlation of reference CHI (IAM) with CHI (IAM) on column R20511-014-3: lower CHI (IAM) on new batches, outlier if difference greater than 7.2 CHI IAM units
Description: The IAM binding was measured using IAM.PC.DD2 HPLC columns (Regis Technologies, Inc., IL, USA) with dimensions of 100 x 4.6 mm, particle size 10 μm with 300 Å pore size.
Two batches of IAM.PC.DD2 columns were studied (R20511-014-3 and P20511-014-3) that had been prepared using the new batches of silica support.
The retention times were standardized using the IAM calibration mixture, containing octanophenone, heptanophenone, hexanophenone, valerophenone, butyrophenone, propiophenone, acetophenone, acetanilide and paracetamol. The retention times of the compounds were plotted against the isocratically determined and predefined CHI (IAM) values listed in Table 1. The slope and intercept of the obtained straight line was used to calculate the CHI IAM values of new compounds.

[5] = human

T1 sequence (P02768 25-609): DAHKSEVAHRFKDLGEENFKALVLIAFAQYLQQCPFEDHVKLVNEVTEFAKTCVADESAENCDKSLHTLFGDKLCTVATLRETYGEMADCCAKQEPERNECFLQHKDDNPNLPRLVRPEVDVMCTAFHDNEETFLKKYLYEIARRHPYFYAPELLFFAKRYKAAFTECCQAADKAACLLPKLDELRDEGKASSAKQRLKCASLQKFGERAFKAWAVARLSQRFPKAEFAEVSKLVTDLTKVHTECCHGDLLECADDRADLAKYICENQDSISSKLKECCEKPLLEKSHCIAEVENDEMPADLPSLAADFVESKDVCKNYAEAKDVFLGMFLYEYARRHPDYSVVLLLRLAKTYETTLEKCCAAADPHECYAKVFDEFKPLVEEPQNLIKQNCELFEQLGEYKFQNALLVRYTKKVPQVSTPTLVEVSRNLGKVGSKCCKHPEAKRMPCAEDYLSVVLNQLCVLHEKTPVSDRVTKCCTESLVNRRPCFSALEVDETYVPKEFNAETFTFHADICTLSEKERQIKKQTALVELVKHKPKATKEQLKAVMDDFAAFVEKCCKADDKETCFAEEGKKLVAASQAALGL

| log K HSA [2] | P20511-014-3 CHI (IAM) [4] | R20511-014-3 CHI (IAM) [4] | outlier in correlation of reference CHI (IAM) with CHI (IAM) on column R20511-014-3 [4] | Structure (SMILES) | CHI (IAM) from ref [13] [1] | log K HSA from ref [13] [3] | CHI (IAM) ([1]; system suitability test compounds, CHI (IAM) reference from the literature) | CHI (IAM) deviation between reference and new IAM.PC.DD2 columns [4] | CHI (IAM) “new” [4] | reference log Vdss [5] | CHI (IAM) ([1]; previously published, IAM column manufactured 2004-2012) |
| --- | --- | --- | --- | --- | --- | --- | --- | --- | --- | --- | --- |
| 2.70 | 44.74 | 45.41 | – | Clc1ccc2c(c1)C(N1CCNCC1)=Nc1ccccc1O2 [Amoxapine] | 56.50 | 2.15 | – | – | – | – | – |
| 0.42 | 18.03 | 18.53 | – | CCCCNCC(O)c1ccc(O)cc1 (stereo not shown) [Bamethan] | – | – | – | – | – | – | – |
| – | 30.05 | 30.18 | – | C[C@H]1C[C@H]2[C@@H]3CCC4=CC(=O)C=C[C@]4(C)[C@@]3(F)[C@@H](O)C[C@]2(C)[C@@]1(O)C(=O)CO [Betamethasone] | 31.70 | – | – | – | – | – | – |
| – | – | – | – | CCCC1O[C@@H]2C[C@H]3[C@@H]4CCC5=CC(=O)C=C[C@]5(C)[C@H]4[C@@H](O)C[C@]3(C)[C@]2(C(=O)CO)O1 (stereo partly shown) [Budesonide] | – | – | 38.7 | very similar | 38 | – | – |
| – | 44.45 | 44.37 | – | CCOC(=O)C1=C(C)NC(C)=C(C(=O)OC)C1c1cccc(Cl)c1Cl (stereo not shown) [Felodipine] | 46.10 | – | – | – | – | – | – |
| – | 18.27 | 18.27 | – | CCOC(=O)c1ncn2c1CN(C)C(=O)c1cc(F)ccc1-2 [Flumazenil] | 18.40 | – | – | – | – | – | – |
| – | – | – | – | O=C(CCCN1CCC(O)(c2ccc(Cl)cc2)CC1)c1ccc(F)cc1 [Haloperidol] | – | – | – | very similar | 48 | – | – |
| 2.59 | 27.02 | 27.23 | – | C[C@]12CCC(=O)C=C1CC[C@@H]1[C@@H]2[C@@H](O)C[C@@]2(C)[C@H]1CC[C@]2(O)C(=O)CO [Hydrocortisone] | 27.90 | – | – | – | – | – | – |
| – | 39.26 | 39.50 | – | CC(=O)N1CCN(c2ccc(OCC3COC(Cn4ccnc4)(c4ccc(Cl)cc4Cl)O3)cc2)CC1 (stereo not shown) [Ketoconazole] | 42.90 | – | – | – | – | – | – |
| – | 23.89 | 22.93 | – | CC(C(=O)O)c1cccc(C(=O)c2ccccc2)c1 (stereo not shown) [Ketoprofen] | 21.90 | – | – | very similar | 20.0 | – | 21.9 |
| – | 37.48 | 38.29 | – | CC(CCc1ccccc1)NCC(O)c1ccc(O)c(C(N)=O)c1 (stereo not shown) [Labetalol] | 43.90 | – | – | – | – | – | – |
| 2.02 | 48.97 | 49.57 | – | OCCN1CCN(CCCN2c3ccccc3Sc3ccc(Cl)cc32)CC1 [Perphenazine] | 56.30 | 1.6 | – | – | – | – | – |
| – | 29.35 | 29.82 | – | COc1cc2nc(N3CCN(C(=O)c4ccco4)CC3)nc(N)c2cc1OC [Prazosin] | 31.60 | – | – | – | – | – | – |
| – | 27.20 | 27.31 | – | C[C@]12C=CC(=O)C=C1CC[C@@H]1[C@@H]2[C@@H](O)C[C@@]2(C)[C@H]1CC[C@]2(O)C(=O)CO [Prednisolone] | 28.00 | – | – | – | – | – | – |
| 1.67 | 11.89 | 11.73 | outliers | CCN(CC)CCNC(=O)c1ccc(N)cc1 [Procainamide] | – | 0.73 | – | – | – | – | – |
| 3.21 | – | – | – | CCCc1cc(=O)[nH]c(=S)[nH]1 [Propylthiouracil] | – | 2.67 | – | – | – | – | – |
| 2.66 | 26.89 | 26.19 | – | O=C1C(CC[S+]([O-])c2ccccc2)C(=O)N(c2ccccc2)N1c1ccccc1 (stereo not shown) [Sulfinpyrazone] | 26.10 | 3.17 | – | – | – | – | – |
| 3.68 | 7.37 | 6.48 | – | Cc1noc(NS(=O)(=O)c2ccc(N)cc2)c1C [Sulfisoxazole] | 2.90 | – | – | – | – | – | – |
| 4.82 | – | – | – | CC/C(=C(\c1ccccc1)c1ccc(OCCN(C)C)cc1)c1ccccc1 [Tamoxifen] | – | 1.29 | – | – | – | – | – |
| 3.06 | 33.86 | 34.09 | – | O=c1n(CCCN2CCN(c3cccc(Cl)c3)CC2)nc2ccccn12 [Trazodone] | 36.30 | 0.8 | – | – | – | – | – |
| 0.95 | 20.52 | 20.99 | – | COc1cc(Cc2cnc(N)nc2N)cc(OC)c1OC [Trimethoprim] | 20.80 | 4.45 | – | – | – | – | – |
| – | – | – | outliers | CN(C)CCc1c[nH]c2ccc(C[C@H]3COC(=O)N3)cc12 [zolmitriptan] | – | – | – | – | – | – | – |

| Structure (SMILES) | log K HSA [2] | P20511-014-3 CHI (IAM) [4] | R20511-014-3 CHI (IAM) [4] | outlier in correlation of reference CHI (IAM) with CHI (IAM) on column R20511-014-3 [4] | CHI (IAM) from ref [13] [1] | log K HSA from ref [13] [3] | CHI (IAM) ([1]; system suitability test compounds, CHI (IAM) reference from the literature) | CHI (IAM) deviation between reference and new IAM.PC.DD2 columns [4] | CHI (IAM) “new” [4] | reference log Vdss [5] | CHI (IAM) ([1]; previously published, IAM column manufactured 2004-2012) |
| --- | --- | --- | --- | --- | --- | --- | --- | --- | --- | --- | --- |
| CCN(CC)CCNC(=O)c1ccc(NC(C)=O)cc1 [Acecainide] | 0.52 | 17.57 | 17.72 | – | 23.30 | 0.69 | – | – | – | – | – |
| CN(C)CCCN1c2ccccc2Sc2ccc(Cl)cc21 [Chlorpromazine] | 1.27 | 50.94 | 51.54 | – | – | 1.18 | – | > 5 CHI (IAM) unit | 54.0 | 2.15 | – |
| CCn1nc(C(=O)O)c(=O)c2cc3c(cc21)OCO3 [Cinoxacin] | 0.91 | 6.67 | 5.31 | – | – | 0.79 | – | – | – | -0.42 | – |
| COc1cc2c(c(OC)c1OC)-c1ccc(OC)c(=O)cc1[C@@H](NC(C)=O)CC2 [Colchicine] | – | 23.18 | 23.45 | – | 23.70 | – | – | – | 23.0 | – | – |
| O=C(O)Cc1ccccc1Nc1c(Cl)cccc1Cl [Diclofenac] | – | 35.85 | 35.18 | – | 33.50 | – | – | – | – | -0.67 | – |
| Cn1c(=O)c2c(ncn2CC(O)CO)n(C)c1=O (stereo not shown) [Diprophylline] | 4.24 | -1.98 | -1.49 | – | -4.00 | 4.1 | – | – | – | – | – |
| NC(=O)OCC(COC(N)=O)c1ccccc1 [Felbamate] | 4.15 | 39.21 | 39.16 | – | 19.07 | 3.46 | – | – | – | – | – |
| CN(C)CCCN1c2ccccc2CCc2ccccc21 [Imipramine] | 5.59 | 44.81 | 45.58 | – | 51.60 | – | – | > 5 CHI (IAM) unit | 45.0 | – | – |
| COc1ccc2c(c1)c(CC(=O)O)c(C)n2C(=O)c1ccc(Cl)cc1 [Indomethacin] | – | 33.16 | 32.49 | – | 25.30 | – | – | very similar | 30.0 | -0.96 | – |
| COc1ccc2cc(CCC(C)=O)ccc2c1 [Nabumetone] | 2.14 | 35.96 | 35.90 | – | 38.40 | 0.49 | – | – | – | – | – |
| COc1ccc(Cc2nccc3cc(OC)c(OC)cc23)cc1OC [Papaverine] | 0.39 | 31.15 | 31.22 | – | 34.40 | – | – | – | – | – | – |
| CC(C)NCC(O)COc1cccc2ccccc12 (stereo not shown) [Propranolol] | 1.02 | 41.46 | 42.24 | – | 50.80 | – | – | – | 42.0 | – | – |
| CCN1CCCC1CNC(=O)c1cc(S(N)(=O)=O)ccc1OC (stereo not shown) [Sulpiride] | – | 16.15 | 15.80 | outliers | 25.50 | 4.84 | – | – | – | 0.12 | – |
| Cn1cnc2c1c(=O)[nH]c(=O)n2C [Theobromine] | – | -3.71 | -3.16 | – | – | 4.68 | – | – | – | -0.25 | – |
| CC(=O)CC(c1ccccc1)c1c(O)c2ccccc2oc1=O (stereo not shown) [Warfarin] | – | 24.18 | 23.47 | – | – | – | – | very similar | 24.0 | -0.78 | – |
